Laboratory results from US4284639A, “Combating fungi with 1-phenoxy-2-(2,4-dichlorophenyl)-1-(1,2,4-triazol-1-yl)-ethan-2-ones and -ols” (Bayer Aktiengesellschaft, priority 1977, dated 1981).
≈ marks a conversion by molar mass, not a printed value. Read-outs that look alike come from different tables or passages of the source.

How the values were obtained:
[1] = test system: Erysiphe graminis var. hordei; assay: Shoot treatment test/powdery mildew of cereal/protective (leaf-destructive mycosis); assay type: in vivo; conditions: 0.025 % by weight active compound in the spray liquor; barley; after 6 days; protective
Protocol: (§1) To produce a suitable preparation of active compound, 0.25 part by weight of active compound was taken up in 25 parts by weight of dimethylformamide and 0.06 part by weight of alkylaryl polyglycol ether; 975 parts by weight of water were then added. The concentrate was diluted with water to the desired final concentration of the spray liquor.
To test for protective activity, single-leaved young barley plants of the Amsel variety were sprayed with the preparation of active compound until dew-moist. After drying, the barley plants were dusted with spores of Erysiphe graminis var. hordei.
After 6 days' dwell time of the plants at a temperature of 21°-22° C. and 80-90% atmospheric humidity the occurrence of mildew pustules on the plants was evaluated. The degree of infection was expressed as a percentage of the infection of the untreated control plants. 0% denoted no infection and 100% denoted the same degree of infection as in the case of the untreated control.

Puccinia recondita = assay: Shoot treatment test/cereal rust (leaf-destructive mycosis)/protective; assay type: in vivo; conditions: 0.025 % by weight active compound in the spray liquor; wheat; after 10 days; protective
Protocol: as §1, with “ether and then” for “ether;”, “were” for “were then”
To test the protective activity, one-leaved young wheat plants of the Michigan Amber variety were inoculated with a uredospore suspension of Puccinia recondita in 0.1% strength aqueous agar. After the spore suspension had dried on, the wheat plants were sprayed with the preparation of active compound until dew-moist and were placed, for incubation, in a greenhouse for 24 hours at about 20° C. and 100% relative atmospheric humidity.
After 10 days' dwell time of the plants at a temperature of 20° C. and 80-90% atmospheric humidity, the occurrence of rust pustules on the plant was evaluated. The degree of infection was expressed as a percentage of the infection of the untreated control plants. 0% denoted no infection and 100% denoted the same degree of infection as in the case of the untreated control.

Podosphaera leucotricha = assay: Podosphaera test (apple)/protective; assay type: in vivo; conditions: apple seedlings, 10 days after inoculation, protective
Protocol: (§2) Solvent: 4.7 parts by weight of acetone
(§3) Emulsifier: 0.3 part by weight of alkylaryl polyglycol ether
(§4) Water: 95 parts by weight
The amount of active compound required for the desired concentration of the active compound in the spray liquid was mixed with the stated amount of solvent, and the concentrate was diluted with the stated amount of water which contained the stated amount of emulsifier.
Young apple seedlings in the 4-6 leaf stage were sprayed with the spray liquid until dripping wet. The plants remained in a greenhouse for 24 hours at 20° C. and at a relative atmospheric humidity of 70%. They were then inoculated by dusting the conidia of the apple powdery mildew causative organism (Podosphaera leucotricha) and placed in a greenhouse at a temperature of 21°-23° C. and at a relative atmospheric humidity of about 70%.
10 days after the inoculation, the infection of the seedlings was determined. The assessment data were converted to % infection. 0% meant no infection; 100% meant that the plants were completely infected.

Erysiphe cicohiacearum = assay: Erysiphe test (cucumber)/protective; assay type: in vivo; conditions: cucumber plants, after 12 days, protective
Protocol: as §2, §3, §4
The amount of the active compound required for the desired concentration of active compound in the spray liquid was mixed with the stated amount of solvent and the concentrate was diluted with the stated amount of water containing the stated amount of emulsifier.
Young cucumber plants with about three foliage leaves were sprayed with the spray liquid until dripping wet. The cucumber plants remained in a greenhouse for 24 hours to dry. They were then, for the purpose of inoculation, dusted with conidia of the fungus Erysiphe cicohiacearum. The plants were subsequently placed in a greenhouse at 23°-24° C. and at a relative atmospheric humidity of about 75%.
After 12 days, the infection of the cucumber plants was determined. The assessment data were converted to percent infection. 0% meant no infection; 100% meant that the plants were totally infected.

Trichophyton mentagr. = assay: Anti-mycotic in vitro activity, series dilution test; assay type: cell-based, Trichophyton mentagrophytes; conditions: read-out: Minimum inhibitory concentration
Protocol: (§5) The in vitro tests were carried out in a series dilution test with germ inocula of an average of 5×10^4 germs/ml of substrate. The nutrient medium was (a) for dermatophytes and moulds: Sabouraud's milieu d'epreuve and (b) for yeasts; meat extract/glucose broth.
(§6) The incubation temperature was 28° C. and the duration of incubation was 24 to 96 hours.

Aspergillus species = assay: as above; assay type: cell-based; conditions: read-out: Minimum inhibitory concentration
Protocol: as §5, §6

Candida albicans = assay: as above; assay type: cell-based; conditions: read-out: Minimum inhibitory concentration
Protocol: as §5, §6

Microsporon felineum = assay: as above; assay type: cell-based; conditions: read-out: Minimum inhibitory concentration
Protocol: as §5, §6

Penicillium commune = assay: as above; assay type: cell-based; conditions: read-out: Minimum inhibitory concentration
Protocol: as §5, §6

Torulopsis glabrata = assay: as above; assay type: cell-based; conditions: Nakaseomyces glabratus; γ/ml of nutrient medium; 28° C.; 24 to 96 hours; read-out: Minimum inhibitory concentration
Protocol: as §5, §6

[2] = γ/ml of nutrient medium, 28° C., 24 to 96 hours

| Structure (SMILES) | Infection in % of the untreated control [1] | MIC (Trichophyton mentagr.; [2]) | MIC (Aspergillus species; [2]) | MIC (Candida albicans; [2]) | MIC (Microsporon felineum; [2]) | MIC (Penicillium commune; [2]) | further results |
| --- | --- | --- | --- | --- | --- | --- | --- |
| CC(C)(C)C(=O)C(Oc1ccc(-c2ccc(Cl)cc2)cc1)n1cncn1 (stereo not shown) [A, reference compound] | 55.0% |  |  |  |  |  |  |
| CC(C)(C)C(=O)C(Oc1ccc(-c2ccccc2)cc1)n1cncn1 (stereo not shown) [B, reference compound] |  |  |  |  |  |  | Infection in % of the untreated control (Puccinia recondita): 33.8% |
| CC(C)(C)C(O)C(Oc1ccc(Cl)cc1Cl)n1cncn1 (stereo not shown) [C, reference compound] |  |  |  |  |  |  | Infection in % of the untreated control (Puccinia recondita): 33.8% |
| Cl.O=C(c1ccc(Cl)cc1Cl)C(Oc1ccc(Cl)cc1)n1cncn1 (stereo not shown) [Compound 2, 1-(4-Chlorophenoxy)-2-(2,4-dichlorophenyl)-1-(1,2,4-triazol-1-yl)-ethan-2-one hydrochloride] | 0.0% | 4 µg/mL | > 64 µg/mL | 32 µg/mL | 32 µg/mL | > 64 µg/mL | Infection in % of the untreated control (Puccinia recondita): 12.5%; Infection in % at an active compound concentration of 0.001% (Podosphaera leucotricha): 25%; Infection in % at an active compound concentration of 0.00025% (Erysiphe cicohiacearum): 12% |
| Cl.OC(c1ccc(Cl)cc1Cl)C(Oc1ccc(Cl)cc1)n1cncn1 (stereo not shown) [Compound 3, 1-(4-chlorophenoxy)-2-(2,4-dichlorophenyl)-1-(1,2,4-triazol-1-yl)-ethan-2-ol hydrochloride] | 7.5% | 4 µg/mL | 64 µg/mL | 8 µg/mL | 32 µg/mL | > 64 µg/mL | Infection in % at an active compound concentration of 0.001% (Podosphaera leucotricha): 0%; Infection in % at an active compound concentration of 0.00025% (Erysiphe cicohiacearum): 6% |
| O=C(c1ccc(Cl)cc1Cl)C(Oc1ccc(Cl)cc1Cl)n1cncn1 (stereo not shown) [Compound 4] | 0.0% |  |  |  |  |  |  |
| O=C(c1ccc(Cl)cc1Cl)C(Oc1ccc(-c2ccccc2)cc1)n1cncn1 (stereo not shown) [Compound 5] |  | < 1 µg/mL | > 64 µg/mL | 32 µg/mL (≈ 75.4 µM) |  | > 64 µg/mL | Infection in % of the untreated control (Puccinia recondita): 10.0%; MIC (Torulopsis glabrata): 32 µg/mL (≈ 75.4 µM) |
| O=C(c1ccc(Cl)cc1Cl)C(Oc1ccc(-c2ccc(Cl)cc2)cc1)n1cncn1 (stereo not shown) [Compound 6] | 16.3% |  |  |  |  |  |  |
| OC(c1ccc(Cl)cc1Cl)C(Oc1ccc(Cl)cc1Cl)n1cncn1 (stereo not shown) [Compound 14] | 0.0% | 4 µg/mL (≈ 9.54 µM) | 64 µg/mL (≈ 153 µM) | 8 µg/mL (≈ 19.1 µM) | 32 µg/mL (≈ 76.4 µM) | > 64 µg/mL | Infection in % at an active compound concentration of 0.001% (Podosphaera leucotricha): 0%; Infection in % at an active compound concentration of 0.00025% (Erysiphe cicohiacearum): 16%; MIC (Torulopsis glabrata): 32 µg/mL (≈ 76.4 µM) |
| OC(c1ccc(Cl)cc1Cl)C(Oc1ccc(-c2ccccc2)cc1)n1cncn1 (stereo not shown) [Compound 15] | 37.5% | < 1 µg/mL | > 64 µg/mL | 32 µg/mL (≈ 75.1 µM) | < 1 µg/mL | > 64 µg/mL | Infection in % at an active compound concentration of 0.00025% (Erysiphe cicohiacearum): 12%; MIC (Torulopsis glabrata): 1 µg/mL (≈ 2.35 µM) |
| OC(c1ccc(Cl)cc1Cl)C(Oc1ccc(-c2ccc(Cl)cc2)cc1)n1cncn1 (stereo not shown) [Compound 16] | 37.5% | < 1 µg/mL | > 64 µg/mL | 8 µg/mL (≈ 17.4 µM) | 4 µg/mL (≈ 8.68 µM) | > 64 µg/mL | MIC (Torulopsis glabrata): 1 µg/mL (≈ 2.17 µM) |
| CC(C)(C)C(=O)C(Oc1ccc(Cl)cc1)n1cncn1 (stereo not shown) [D, reference compound] |  |  |  |  |  |  | Infection in % at an active compound concentration of 0.001% (Podosphaera leucotricha): 42%; MIC (Trichophyton mentagr.): 4 µg/mL (≈ 13.6 µM); MIC (Aspergillus species): 100 µg/mL (≈ 340 µM); MIC (Candida albicans): 40 µg/mL (≈ 136 µM); MIC (Microsporon felineum): 100 µg/mL (≈ 340 µM); MIC (Penicillium commune): > 100 µg/mL |
| CC(C)(C)C(O)C(Oc1ccc(-c2ccccc2)cc1)n1cncn1 (stereo not shown) [E, reference compound] |  |  |  |  |  |  | Infection in % at an active compound concentration of 0.00025% (Erysiphe cicohiacearum): 62% |
| CC(C)(C)C(=O)C(Oc1ccc(Cl)cc1Cl)n1cncn1 (stereo not shown) [F, reference compound] |  | 4 µg/mL (≈ 12.2 µM) | 100 µg/mL (≈ 305 µM) | 40 µg/mL (≈ 122 µM) | 100 µg/mL (≈ 305 µM) | > 100 µg/mL |  |
| O=C(c1ccc(Cl)cc1)C(Oc1ccc(Cl)cc1Cl)n1cncn1 (stereo not shown) [G, reference compound] |  |  |  |  |  | > 100 µg/mL |  |
| COC(=O)c1ccc(OC(C(O)C(C)(C)C)n2cncn2)cc1 (stereo not shown) [H, reference compound] |  | 4 µg/mL (≈ 12.5 µM) | > 64 µg/mL | 64 µg/mL (≈ 200 µM) | 64 µg/mL (≈ 200 µM) | > 64 µg/mL |  |
| OC(c1ccccc1)C(Oc1ccc(Cl)cc1)n1cncn1 (stereo not shown) [K, reference compound] |  | 64 µg/mL (≈ 203 µM) |  | 64 µg/mL (≈ 203 µM) |  | > 64 µg/mL |  |
